The data set can be described thus: Chemical stability of the active ingredients in the composition. In kind it is physicochemical. The note with it: in Composition 1. As for the experimental part:
The stability of the active ingredients per se were also measured under a wide variation of temperature conditions.

Regarding `CCc1cccc(C)c1N(C(=O)CCl)C(C)COC` (stereo not drawn) [S-metalachlor, S-metolachlor], the active ingredient content is 38.4 % wt (2 wks@ 54° C.), 38.2 % wt (2 wks@ −18° C.) and 38.5 % wt (Initial).

Turning to `CSc1nnc(C(C)(C)C)c(=O)n1N` [Metribuzin], the active ingredient content is on record as 7.1 % wt (2 wks@ 54° C.), 7.1 % wt (2 wks@ −18° C.) and 7.2 % wt (Initial).

With `CCOc1nc(F)cc2nc(S(=O)(=O)Nc3c(Cl)cccc3C(=O)OC)nn12` [Cloransulam-methyl], the active ingredient content (2 wks@ 54° C.) worked out at 0.70 % wt, the active ingredient content (2 wks@ −18° C.) stood at 0.76 % wt and the active ingredient content (Initial) worked out at 0.77 % wt.
